Test results as given in patent US12264173B2 (GILEAD SCIENCES, INC., priority 2020, dated 2025).
Like-named read-outs stand apart in the source and are kept apart here.

Tests used:
RSV A2 = test: RSV NHBE EC50 (RSV A2 antiviral assay in NHBE cells); type: cell-based; details: read-out: RSV NHBE EC50
Method: Normal human bronchial epithelial (NHBE) cells were purchased from Lonza (Walkersville, MD, Cat #CC-2540) and cultured in Bronchial Epithelial Growth Media (BEGM) (Lonza, Walkersville, MD, Cat #CC-3170). The cells were passaged 1-2 times per week to maintain <80% confluency. The NHBE cells were discarded after 6 passages in culture.
To conduct the RSV A2 antiviral assay, NHBE cells were plated in 96-well plates at a density of 7,500 cells per well in BEGM and allowed to attach overnight at 37° C. Following attachment, 100 μL of cell culture media was removed and 3-fold serially diluted compound was added using a Hewlett-Packard D300 Digital Dispenser. The final concentration of DMSO was normalized to 0.05%. Following compound addition, the NHBE cells were infected by the addition of 100 μL of RSV A2 at a titer of 1×10^4.5 tissue culture infectious doses/mL in BEGM and then incubated at 37° C. for 4 days. The NHBE cells were then allowed to equilibrate to 25° C. and cell viability was determined by removing 100 μL of culture medium and adding 100 μL of Cell-Titer Glo viability reagent. The mixtures were incubated for 10 minutes at 25° C., and the luminescence signal was quantified on an Envision luminescence plate reader.

RSV strain A2 = test: microbe, parasite or virus in culture; type: cell-based; details: read-out: RSV HEp-2 EC50
Method: Antiviral activity against RSV is determined using an infectious cytopathic cell protection assay in HEp-2 cells. In this assay, compounds inhibiting viral infection and/or replication produce a cytoprotective effect against the virus-induced cell killing that can be quantified using a cell viability reagent. The techniques used here are novel adaptations of methods described in published literature (Chapman et al., Antimicrob Agents Chemother. 2007, 51(9):3346-53.).
HEp-2 cells are obtained from ATCC (Manassas, VI) and maintained in MEM media supplemented with 10% fetal bovine serum and penicillin/streptomycin. Cells are passaged twice a week and kept at subconfluent stage. Commercial stock of RSV strain A2 (Advanced Biotechnologies, Columbia, MD) is titered before compound testing to determine the appropriate dilution of the virus stock that generates desirable cytopathic effect in HEp-2 cells.
For antiviral tests, HEp-2 cells are grown in large cell culture flasks to near confluency but not fully so. The compounds to be tested are prediluted in DMSO in 384-well compound dilution plates, either in an 8 or 40 sample per plate standardized dose response format. 3-fold serial dilution increments of each test compound are prepared in the plates and test samples are transferred via acoustic transfer apparatus (Echo, Labcyte) at 100 nL per well into cell culture assay 384-well plates. Each compound dilution is transferred in single or quadruplicate samples into dry assay plates, which are stored until assay is ready to go. The positive and negative controls are laid out in opposite on ends of the plate in vertical blocks (1 column).
Subsequently, an infectious mixture is prepared using an appropriate dilution of virus stock previously determined by titration with cells at a density of 50,000/mL and 20 µL/well is added to test plates w/compounds via automation (uFlow, Biotek). Each plate includes negative and positive controls (16 replicates each) to create 0% and 100% virus inhibition standards, respectively. Following the infection with RSV, testing plates are incubated for 4 days in a 37° C. cell culture incubator. After the incubation, a cell viability reagent, Cell TiterGlo (Promega, Madison, WI) is added to the assay plates, which are incubated briefly, and a luminescent readout is measured (Envision, Perkin Elmer) in all the assay plates. The RSV-induced cytopathic effect, percentage inhibition, is determined from the levels of remaining cell viability. […] Various potent anti-RSV tool compounds are used as positive controls for antiviral activity.

[1] = human respiratory syncytial virus, NHBE, 96 h, Table 3, NHBE cells, RSV A2, 4 days
[2] = human respiratory syncytial virus, HEp-2, 96 h, Table 3, HEp-2 cells, RSV A2, 4 days
[3] = Table 3, NHBE cells, RSV A2, 4 days
[4] = Table 3, HEp-2 cells, RSV A2, 4 days

| Structure (SMILES) | EC50 (RSV A2; [1]) | EC50 (RSV strain A2; [2]) | also measured |
| --- | --- | --- | --- |
| CCCCOC(=O)[C@H](C)NP(=O)(OC[C@@]1(C#N)O[C@@H](c2ccc3c(N)ncnn23)[C@H](OC(=O)C(C)C)[C@@H]1OC(=O)C(C)C)Oc1ccccc1 (mixture of isomers) [Example 225, (2R,3S,4S,5S)-5-(4-aminopyrrolo[2,1-f][1,2,4]triazin-7-yl)-2-((((((S)-1-butoxy-1-oxopropan-2-yl)amino)(phenoxy)phosphoryl)oxy)methyl)-2-cyanotetrahydrofuran-3,4-diyl bis(2-methylpropanoate)] | 14 nM | – | – |
| CCOC(=O)[C@H](C)NP(=O)(OC[C@@]1(C#N)O[C@@H](c2ccc3c(N)ncnn23)[C@H](OC(=O)C(C)C)[C@@H]1OC(=O)C(C)C)Oc1ccccc1 (mixture of isomers) [Example 248, (2R,3S,4S,5S)-5-(4-aminopyrrolo[2,1-f][1,2,4]triazin-7-yl)-2-cyano-2-((((((S)-1-ethoxy-1-oxopropan-2-yl)amino)(phenoxy)phosphoryl)oxy)methyl)tetrahydrofuran-3,4-diyl bis(2-methylpropanoate)] | – | 23 nM | – |
| CCCCOC(=O)C(C)NP(=O)(OCC1(C#N)OC(c2ccc3c(N)ncnn23)C(OC(=O)C(C)C)C1OC(=O)C(C)C)Oc1ccccc1 (single isomer, unassigned) [Example 226] | – | – | EC50 (RSV A2; [3]): 9 nM; EC50 (RSV strain A2; [4]): 9 nM |
| CCCCOC(=O)C(C)NP(=O)(OCC1(C#N)OC(c2ccc3c(N)ncnn23)C(OC(=O)C(C)C)C1OC(=O)C(C)C)Oc1ccccc1 (single isomer, unassigned) [Example 227] | – | – | EC50 (RSV A2; [3]): 12 nM; EC50 (RSV strain A2; [4]): 17 nM |
| CC(C)C(=O)OC1C(c2ccc3c(N)ncnn23)OC(C#N)(COP(=O)(NC(C)C(=O)OC2CCN(C)C2)Oc2ccccc2)C1OC(=O)C(C)C (single isomer, unassigned) [Example 233] | – | – | EC50 (RSV A2; [3]): 29 nM; EC50 (RSV strain A2; [4]): 127 nM |
| CC(C)C(=O)O[C@H]1[C@H](c2ccc3c(N)ncnn23)O[C@](C#N)(COP(=O)(N[C@@H](C)C(=O)O[C@@H]2CCOC2)Oc2ccccc2)[C@H]1OC(=O)C(C)C (single isomer, unassigned) [Example 243] | 11 nM | – | EC50 (RSV strain A2; [4]): 15 nM |
| CC(C)C(=O)O[C@H]1[C@H](c2ccc3c(N)ncnn23)O[C@](C#N)(COP(=O)(N[C@@H](C)C(=O)O[C@@H]2CCOC2)Oc2ccccc2)[C@H]1OC(=O)C(C)C (single isomer, unassigned) [Example 244] | – | – | EC50 (RSV A2; [3]): 21 nM; EC50 (RSV strain A2; [4]): 63 nM |
| CCOC(=O)[C@H](C)N[P@@](=O)(OC[C@@]1(C#N)O[C@@H](c2ccc3c(N)ncnn23)[C@H](OC(=O)C(C)C)[C@@H]1OC(=O)C(C)C)Oc1ccccc1 (single isomer, unassigned) [Example 249] | 24 nM | 47 nM | – |
| CCOCCOCCOC(=O)[C@H](C)NP(=O)(OC[C@@]1(C#N)O[C@@H](c2ccc3c(N)ncnn23)[C@H](OC(=O)C(C)C)[C@@H]1OC(=O)C(C)C)Oc1ccccc1 (single isomer, unassigned) [Example 263] | – | 23 nM | – |
| CCC(=O)OC1[C@H](c2ccc3c(N)ncnn23)O[C@](C#N)(COP(=O)(N[C@@H](C)C(=O)OCC2CC2)Oc2ccccc2)[C@H]1OC(=O)CC (stereo in doubt) [Example 98, (2R,3S,4R,5S)-5-(4-aminopyrrolo[2,1-f][1,2,4]triazin-7-yl)-2-cyano-2-((((((S)-1-(cyclopropylmethoxy)-1-oxopropan-2-yl)amino)(phenoxy)phosphoryl)oxy)methyl) tetrahydrofuran-3,4-diyl dipropionate] | 17 nM | 48 nM | – |
| CC(=O)O[C@H]1[C@H](c2ccc3c(N)ncnn23)O[C@](C#N)(CO[P@@](=O)(N[C@@H](C)C(=O)OC2CCCCC2)Oc2ccccc2)[C@H]1OC(C)=O [Example 81, (2R,3S,4S,5S)-5-(4-aminopyrrolo[2,1-f][1,2,4]triazin-7-yl)-2-cyano-2-((((S)-(((S)-1-(cyclohexyloxy)-1-oxopropan-2-yl)amino)(phenoxy)phosphoryl)oxy)methyl) tetrahydrofuran-3,4-diyl diacetate] | 22 nM | 194 nM | – |
| CCOC(=O)[C@H](C)NP(=O)(N[C@@H](C)C(=O)OCC)OC[C@@]1(C#N)O[C@@H](c2ccc3c(NC(=O)C(C)C)ncnn23)[C@H](OC(=O)C(C)C)[C@@H]1OC(=O)C(C)C [Example 145, ((2R,3S,4R,5S)-5-(4-isobutyramidopyrrolo[2,1-f][1,2,4]triazin-7-yl)-2-cyano-3,4-diisobutylatetetrahydrofuran-2-yl)methyl bis-ethyl L-alaninate phosphate] | 40 nM | – | – |
| CC(C)C(=O)O[C@H]1[C@H](c2ccc3c(N)ncnn23)O[C@](C#N)(COP(=O)(N[C@@H](C)C(=O)OCCN2CCOCC2)Oc2ccccc2)[C@H]1OC(=O)C(C)C (stereo partly drawn) [Example 223, (2R,3S,4S,5S)-5-(4-aminopyrrolo[2,1-f][1,2,4]triazin-7-yl)-2-cyano-2-((((((S)-1-(2-morpholinoethoxy)-1-oxopropan-2-yl)amino)(phenoxy)phosphoryl)oxy)methyl) tetrahydrofuran-3,4-diyl bis(2-methylpropanoate)] | 223 nM | 1720 nM | – |
| COC(=O)[C@H](C)NP(=O)(O)OC[C@@]1(C#N)O[C@@H](c2ccc3c(N)ncnn23)[C@H](OC(=O)C(C)C)[C@@H]1OC(=O)C(C)C [Example 242, ((2R,3S,4S,5S)-5-(4-aminopyrrolo[2,1-f][1,2,4]triazin-7-yl)-2-cyano-3,4-bis(isobutyryloxy)tetrahydrofuran-2-yl)methyl ((S)-1-methoxy-1-oxopropan-2-yl)phosphoramidate] | > 5000 nM | 7190 nM | – |
| COC(=O)[C@H](C)NP(=S)(OC[C@@]1(C#N)O[C@@H](c2ccc3c(N)ncnn23)[C@H](OC(=O)C(C)C)[C@@H]1OC(=O)C(C)C)Oc1ccccc1 (stereo partly drawn) [Example 250, (2R,3S,4S,5S)-5-(4-aminopyrrolo[2,1-f][1,2,4]triazin-7-yl)-2-cyano-2-((((((S)-1-methoxy-1-oxopropan-2-yl)amino)(phenoxy)phosphorothioyl)oxy)methyl) tetrahydrofuran-3,4-diyl bis(2-methylpropanoate)] | – | – | EC50 (RSV A2; human respiratory syncytial virus, NHBE, 96 h): 2420 nM; EC50 (RSV strain A2; human respiratory syncytial virus, HEp-2, 96 h): 3930 nM |
| CC(C)C(=O)O[C@H]1[C@H](c2ccc3c(N)ncnn23)O[C@](C#N)(COP(=O)(N[C@@H](C)C(=O)OCC(C)(C)O)Oc2ccccc2)[C@H]1OC(=O)C(C)C (stereo partly drawn) [Example 256, (2R,3S,4S,5S)-5-(4-aminopyrrolo[2,1-f][1,2,4]triazin-7-yl)-2-cyano-2-((((((S)-1-(2-hydroxy-2-methylpropoxy)-1-oxopropan-2-yl)amino)(phenoxy)phosphoryl)oxy)methyl)tetrahydrofuran-3,4-diyl bis(2-methylpropanoate)] | 20 nM | – | – |
| CC(C)C(=O)O[C@H]1[C@H](c2ccc3c(N)ncnn23)O[C@](C#N)(COP(=O)(N[C@@H](C)C(=O)OCC(C)(C)OP(=O)(O)O)Oc2ccccc2)[C@H]1OC(=O)C(C)C (stereo partly drawn) [Example 262, (2R,3S,4S,5S)-5-(4-aminopyrrolo[2,1-f][1,2,4]triazin-7-yl)-2-cyano-2-((((((S)-1-(2-methyl-2-(phosphonooxy)propoxy)-1-oxopropan-2-yl)amino)(phenoxy)phosphoryl)oxy)methyl)tetrahydrofuran-3,4-diyl bis(2-methylpropanoate)] | – | 163 nM | – |
